Results reported in patent US20100267561A1, “HERBICIDAL PYRIDAZINONE DERIVATIVES” (priority 2007, published 2010).

Legend:
Test in all cases: Test E pre-/postemergence plant response
Format in all cases: in vivo
Conditions in all cases: scale 0 to 100
[1] = tested on: bermudagrass (Cynodon dactylon)
Source text: (§1) Seeds of plant species selected from bermudagrass (Cynodon dactylon), Surinam grass (Brachiaria decumbens), large crabgrass (Digitaria sanguinalis), green foxtail (Setaria viridis), goosegrass (Eleusine indica), johnsongrass (Sorghum halepense), kochia (Kochia scoparia), pitted morningglory (Ipomoea lacunosa), purple nutsedge (Cyperus rotundus), common ragweed (Ambrosia elation), black mustard (Brassica nigra), guineagrass (Panicum maximum), dallisgrass (Paspalum dilatatum), barnyardgrass (Echinochloa crus-galli), southern (S.) sandbur (Cenchrus echinatus), common sowthistle (Sonchus oleraceous), prickly sida (Sida spinosa), Italian ryegrass (Lolium multiflorum), common purslane (Portulaca oleracea), broadleaf signalgrass (Brachiaria platyphylla), common groundsel (Senecio vulgaris), common chickweed (Stellaria media), Virginia (V.) dayflower (Commelina virginica), tropical (T.) spiderwort (Commelina benghalensis), annual bluegrass (Poa annua), naked crabgrass (Digitaria nuda), itchgrass (Rottboellia cochinchinensis), quackgrass (Elytrigia repens), Canada horseweed (Conyza canadensis), field bindweed (Convolvulus arvensis), spanishneedles (Bidens bipinnata), common mallow (Malva sylvestris) and Russian thistle (Salsola kali) were planted and treated preemergence with test chemicals formulated in a non-phytotoxic solvent mixture which included a surfactant. At the same time, plants selected from these weed species were treated with postemergence applications of some of the test chemicals formulated in the same manner. Plants ranged in height from 2 to 18 cm (1- to 4-leaf stage) for postemergence treatments.
(§2) Treated plants and controls were maintained in a greenhouse for 14 to 21 days, after which time all species were compared to controls and visually evaluated. Plant response ratings, summarized in Table E, are based on a scale of 0 to 100 where 0 is no effect and 100 is complete control. A dash (-) response means no test result.

[2] = tested on: broadleaf signalgrass (Brachiaria platyphylla)
Source text: as §1, §2

[3] = tested on: itchgrass (Rottboellia cochinchinensis)
Source text: as §1, §2

[4] = tested on: johnsongrass (Sorghum halepense)
Source text: as §1, §2

[5] = tested on: large crabgrass (Digitaria sanguinalis)
Source text: as §1, §2

[6] = tested on: naked crabgrass (Digitaria nuda)
Source text: as §1, §2

[7] = tested on: purple nutsedge (Cyperus rotundus)
Source text: as §1, §2

[8] = tested on: southern (S.) sandbur (Cenchrus echinatus)
Source text: as §1, §2

[9] = tested on: surinam grass (Brachiaria decumbens)
Source text: as §1, §2

## CCc1cc(-c2ccc(C(F)(F)F)cc2)nn1-c1c(OC(=O)OC(C)C)cnn(C)c1=O [Compound 12]
[1]; 4 g ai/ha, Postemergence
  Plant response rating, Bermudagrass: 15
[1]; 8 g ai/ha, Preemergence
  Plant response rating, Bermudagrass: 75
[1]; 31 g ai/ha, Preemergence
  Plant response rating, Bermudagrass: 95
[1]; Postemergence, 8 g ai/ha
  Plant response rating, Bermudagrass: 70
[1]; Postemergence, 31 g ai/ha
  Plant response rating, Bermudagrass: 95
[1]; Preemergence, 4 g ai/ha
  Plant response rating, Bermudagrass: 35
[2]; 4 g ai/ha, Postemergence
  Plant response rating, Signalgrass: 65
[2]; 31 g ai/ha, Preemergence
  Plant response rating, Signalgrass: 95
[2]; Postemergence, 8 g ai/ha
  Plant response rating, Signalgrass: 80
[2]; Postemergence, 31 g ai/ha
  Plant response rating, Signalgrass: 100
[2]; Preemergence, 4 g ai/ha
  Plant response rating, Signalgrass: 0
[3]; 4 g ai/ha, Postemergence
  Plant response rating, Itchgrass: 0
[3]; 31 g ai/ha, Preemergence
  Plant response rating, Itchgrass: 80
[3]; Postemergence, 8 g ai/ha
  Plant response rating, Itchgrass: 50
[3]; Postemergence, 31 g ai/ha
  Plant response rating, Itchgrass: 95
[3]; Preemergence, 4 g ai/ha
  Plant response rating, Itchgrass: 20
[4]; 4 g ai/ha, Postemergence
  Plant response rating, Johnsongrass: 95
[4]; 31 g ai/ha, Preemergence
  Plant response rating, Johnsongrass: 95
[4]; Postemergence, 8 g ai/ha
  Plant response rating, Johnsongrass: 95
[4]; Postemergence, 31 g ai/ha
  Plant response rating, Johnsongrass: 95
[4]; Preemergence, 4 g ai/ha
  Plant response rating, Johnsongrass: 75
[5]; 4 g ai/ha, Postemergence
  Plant response rating, Crabgrass, Large: 0
[5]; 8 g ai/ha, Preemergence
  Plant response rating, Crabgrass, Large: 35
[5]; 31 g ai/ha, Preemergence
  Plant response rating, Crabgrass, Large: 98
[5]; Postemergence, 8 g ai/ha
  Plant response rating, Crabgrass, Large: 65
[5]; Postemergence, 31 g ai/ha
  Plant response rating, Crabgrass, Large: 95
[5]; Preemergence, 4 g ai/ha
  Plant response rating, Crabgrass, Large: 0
[6]; 4 g ai/ha, Postemergence
  Plant response rating, Crabgrass, Naked: 50
[6]; 8 g ai/ha, Preemergence
  Plant response rating, Crabgrass, Naked: 95
[6]; 31 g ai/ha, Preemergence
  Plant response rating, Crabgrass, Naked: 100
[6]; Postemergence, 8 g ai/ha
  Plant response rating, Crabgrass, Naked: 90
[6]; Postemergence, 31 g ai/ha
  Plant response rating, Crabgrass, Naked: 95
[6]; Preemergence, 4 g ai/ha
  Plant response rating, Crabgrass, Naked: 15
[7]; 4 g ai/ha, Postemergence
  Plant response rating, Nutsedge, Purple: 0
[7]; 31 g ai/ha, Preemergence
  Plant response rating, Nutsedge, Purple: 0
[7]; Postemergence, 8 g ai/ha
  Plant response rating, Nutsedge, Purple: 0
[7]; Postemergence, 31 g ai/ha
  Plant response rating, Nutsedge, Purple: 0
[8]; 4 g ai/ha, Postemergence
  Plant response rating, Sandbur, S.: 90
[8]; 31 g ai/ha, Preemergence
  Plant response rating, Sandbur, S.: 95
[8]; Postemergence, 8 g ai/ha
  Plant response rating, Sandbur, S.: 98
[8]; Postemergence, 31 g ai/ha
  Plant response rating, Sandbur, S.: 100
[8]; Preemergence, 4 g ai/ha
  Plant response rating, Sandbur, S.: 0
[9]; 4 g ai/ha, Postemergence
  Plant response rating, Surinam Grass: 35
[9]; 31 g ai/ha, Preemergence
  Plant response rating, Surinam Grass: 95
[9]; Postemergence, 8 g ai/ha
  Plant response rating, Surinam Grass: 90
[9]; Postemergence, 31 g ai/ha
  Plant response rating, Surinam Grass: 98
[9]; Preemergence, 4 g ai/ha
  Plant response rating, Surinam Grass: 0
